Source: ChEMBL document CHEMBL6074711, “Design, Synthesis, and Activity Evaluation of C-23-Modified 5-O-Mycaminosyltylonolide Derivatives” (ACS Med Chem Lett, 2024)
Converted amounts (≈) assume the structure as drawn.

Legend:
Staphylococcus aureus [1] = experiment: Antibacterial activity against Staphylococcus aureus ATCC25923 incubated for 16 to 20 hrs by broth microdilution method; format: functional; conditions: time 16-20 hrs
Escherichia coli [2] = experiment: Antibacterial activity against Escherichia coli ATCC25922 incubated for 16 to 20 hrs by broth microdilution method; format: functional; conditions: time 16-20 hrs
Enterococcus faecalis [3] = experiment: Antibacterial activity against Enterococcus faecalis ATCC29212 incubated for 16 to 20 hrs by broth microdilution method; format: functional; conditions: time 16-20 hrs
[4] = test system: Stenotrophomonas maltophilia; experiment: Antibacterial activity against Stenotrophomonas maltophilia ATCC17808 incubated for 16 to 20 hrs by broth microdilution method; format: functional; conditions: time 16-20 hrs
Staphylococcus aureus [5] = experiment: Antibacterial activity against drug-resistant Staphylococcus aureus clinical isolate M20 incubated for 16 to 20 hrs by broth microdilution method; format: functional; conditions: time 16-20 hrs
Escherichia coli [6] = experiment: Antibacterial activity against drug-resistant Escherichia coli clinical isolate 1322 incubated for 16 to 20 hrs by broth microdilution method; format: functional; conditions: time 16-20 hrs
Escherichia coli [7] = experiment: Antibacterial activity against drug-resistant Escherichia coli clinical isolate 1333 incubated for 16 to 20 hrs by broth microdilution method; format: functional; conditions: time 16-20 hrs
Escherichia coli [8] = experiment: Antibacterial activity against Escherichia coli ATCC25922 under 10^4 CFU/ml of bacterial inoculum culture by absorbance based assay; format: functional
Escherichia coli [9] = experiment: Antibacterial activity against Escherichia coli ATCC25922 under 10^5 CFU/ml of bacterial inoculum culture by absorbance based assay; format: functional
Escherichia coli [10] = experiment: Antibacterial activity against Escherichia coli ATCC25922 under 10^6 CFU/ml of bacterial inoculum culture by absorbance based assay; format: functional
Escherichia coli [11] = experiment: Antibacterial activity against Escherichia coli ATCC25922 under 10^7 CFU/ml of bacterial inoculum culture by absorbance based assay; format: functional
Staphylococcus aureus [12] = experiment: Antibacterial activity against Staphylococcus aureus ATCC25923 under 10^4 CFU/ml of bacterial inoculum culture by absorbance based assay; format: functional
Staphylococcus aureus [13] = experiment: Antibacterial activity against Staphylococcus aureus ATCC25923 under 10^5 CFU/ml of bacterial inoculum culture by absorbance based assay; format: functional
Staphylococcus aureus [14] = experiment: Antibacterial activity against Staphylococcus aureus ATCC25923 under 10^6 CFU/ml of bacterial inoculum culture by absorbance based assay; format: functional
Staphylococcus aureus [15] = experiment: Antibacterial activity against Staphylococcus aureus ATCC25923 under 10^7 CFU/ml of bacterial inoculum culture by absorbance based assay; format: functional
Staphylococcus aureus [16] = experiment: Bactericidal activity against Staphylococcus aureus ATCC25923 incubated for 20 to 24 hrs; format: functional; conditions: time 20-24 hrs
Staphylococcus aureus [17] = experiment: Antibacterial activity against Staphylococcus aureus ATCC25923 incubated for 20 to 24 hrs; format: functional; conditions: time 20-24 hrs
Enterococcus faecalis [18] = experiment: Bactericidal activity against Enterococcus faecalis ATCC29212 incubated for 20 to 24 hrs; format: functional; conditions: time 20-24 hrs
Enterococcus faecalis [19] = experiment: Antibacterial activity against Enterococcus faecalis ATCC29212 incubated for 20 to 24 hrs; format: functional; conditions: time 20-24 hrs
Enterococcus faecalis [20] = experiment: Ratio of MBC to MIC for Enterococcus faecalis ATCC29212 incubated for 20 to 24 hrs; format: functional; conditions: time 20-24 hrs
Escherichia coli [21] = experiment: Bactericidal activity against Escherichia coli ATCC25922 incubated for 20 to 24 hrs; format: functional; conditions: time 20-24 hrs
Escherichia coli [22] = experiment: Antibacterial activity against Escherichia coli ATCC25922 incubated for 20 to 24 hrs; format: functional; conditions: time 20-24 hrs
Escherichia coli [23] = experiment: Ratio of MBC to MIC for Escherichia coli ATCC25922 incubated for 20 to 24 hrs; format: functional; conditions: time 20-24 hrs
[24] = test system: Stenotrophomonas maltophilia; experiment: Bactericidal activity against Stenotrophomonas maltophilia ATCC17808 incubated for 20 to 24 hrs; format: functional; conditions: time 20-24 hrs
[25] = test system: Stenotrophomonas maltophilia; experiment: Antibacterial activity against Stenotrophomonas maltophilia ATCC17808 incubated for 20 to 24 hrs; format: functional; conditions: time 20-24 hrs
[26] = test system: Stenotrophomonas maltophilia; experiment: Ratio of MBC to MIC for Stenotrophomonas maltophilia ATCC17808 incubated for 20 to 24 hrs; format: functional; conditions: time 20-24 hrs
Staphylococcus aureus [27] = experiment: Induction of resistance development in Staphylococcus aureus ATCC25923 treated daily with continuous passaging measured after 13 passages by absorbance based assay; format: functional; conditions: ATCC25923, 312 h, time 13 day
Staphylococcus aureus [28] = experiment: Induction of resistance development in Staphylococcus aureus ATCC25923 treated daily with continuous passaging measured after 16 passages by absorbance based assay; format: functional; conditions: ATCC25923, 384 h, time 16 day
Escherichia coli [29] = experiment: Induction of resistance development in Escherichia coli ATCC25922 treated daily with continuous passaging measured after 5 passages by absorbance based assay; format: functional; conditions: ATCC25922, 120 h, time 5 day
Escherichia coli [30] = experiment: Induction of resistance development in Escherichia coli ATCC25922 treated daily with continuous passaging measured after 10 passages by absorbance based assay; format: functional; conditions: ATCC25922, 240 h, time 10 day
Escherichia coli [31] = experiment: Induction of resistance development in Escherichia coli ATCC25922 treated daily with continuous passaging measured after 14 passages by absorbance based assay; format: functional; conditions: ATCC25922, 336 h, time 14 day
Staphylococcus aureus [32] = experiment: Ratio of MBC to MIC for Staphylococcus aureus ATCC25923 incubated for 20 to 24 hrs; format: functional; conditions: time 20-24 hrs
[33] = Cytotoxicity against mouse HT-22 cells incubated for 72 hrs by MTT assay; format: toxicity, cell-based
[34] = Selectivity index, ratio of IC50 for mouse HT-22 cells to MIC for methicillin-resistant Staphylococcus aureus; format: toxicity, cell-based

CC[C@H]1OC(=O)C[C@@H](O)[C@H](C)[C@@H](O[C@@H]2O[C@H](C)[C@@H](O[C@H]3C[C@@](C)(O)[C@@H](O)[C@H](C)O3)[C@H](N(C)C)[C@H]2O)[C@@H](CC=O)C[C@@H](C)C(=O)/C=C/C(C)=C/[C@@H]1CO[C@@H]1O[C@H](C)[C@@H](O)[C@@H](OC)[C@H]1OC [TYLOSIN]
MIC (Staphylococcus aureus [1]): 0.5 µg/mL (≈ 0.546 µM)
MIC (Escherichia coli [2]): > 32 µg/mL
MIC (Enterococcus faecalis [3]): 0.5 µg/mL (≈ 0.546 µM)
MIC [4]: > 32 µg/mL
MIC (Staphylococcus aureus [5]): 0.5 µg/mL (≈ 0.546 µM)
MIC (Escherichia coli [6]): > 32 µg/mL
MIC (Escherichia coli [7]): > 32 µg/mL
MIC (Escherichia coli [8]): 1 µg/mL (≈ 1.09 µM)
MIC (Escherichia coli [9]): 1 µg/mL (≈ 1.09 µM)
MIC (Escherichia coli [10]): 2 µg/mL (≈ 2.18 µM)
MIC (Escherichia coli [11]): 2 µg/mL (≈ 2.18 µM)
MIC (Staphylococcus aureus [12]): 1 µg/mL (≈ 1.09 µM)
MIC (Staphylococcus aureus [13]): 2 µg/mL (≈ 2.18 µM)
MIC (Staphylococcus aureus [14]): 4 µg/mL (≈ 4.37 µM)
MIC (Staphylococcus aureus [15]): 4 µg/mL (≈ 4.37 µM)

CC[C@H]1OC(=O)C[C@@H](O)[C@H](C)[C@@H](O[C@@H]2O[C@H](C)[C@@H](O)[C@H](N(C)C)[C@H]2O)[C@@H](CCN(C)Cc2cn(-c3cnc4ccccc4c3)nn2)C[C@@H](C)C(=O)/C=C/C(C)=C/[C@@H]1CN(C)Cc1ccccc1
MIC (Staphylococcus aureus [1]): 0.5 µg/mL (≈ 0.541 µM)
MIC (Escherichia coli [2]): 1 µg/mL (≈ 1.08 µM)
MIC (Enterococcus faecalis [3]): 1 µg/mL (≈ 1.08 µM)
MIC [4]: 1 µg/mL (≈ 1.08 µM)
MIC (Staphylococcus aureus [5]): 0.5 µg/mL (≈ 0.541 µM)
MIC (Escherichia coli [6]): 1 µg/mL (≈ 1.08 µM)
MIC (Escherichia coli [7]): 2 µg/mL (≈ 2.16 µM)
MBC (Staphylococcus aureus [16]): > 32 µg/mL
MIC (Staphylococcus aureus [17]): 16 µg/mL (≈ 17.3 µM)
MBC (Enterococcus faecalis [18]): 8 µg/mL (≈ 8.66 µM)
MIC (Enterococcus faecalis [19]): 4 µg/mL (≈ 4.33 µM)
Ratio (Enterococcus faecalis [20]): 2
MBC (Escherichia coli [21]): 4 µg/mL (≈ 4.33 µM)
MIC (Escherichia coli [22]): 1 µg/mL (≈ 1.08 µM)
Ratio (Escherichia coli [23]): 4
MBC [24]: 16 µg/mL (≈ 17.3 µM)
MIC [25]: 4 µg/mL (≈ 4.33 µM)
Ratio [26]: 4

CC(=O)NC[C@H]1CN(c2ccc(N3CCOCC3)c(F)c2)C(=O)O1 [LINEZOLID]
MIC (Escherichia coli [2]): > 32 µg/mL
MIC [4]: > 32 µg/mL
MIC (Escherichia coli [8]): < 0.063 µg/mL
MIC (Escherichia coli [9]): < 0.063 µg/mL
MIC (Escherichia coli [10]): < 0.063 µg/mL
MIC (Escherichia coli [11]): < 0.063 µg/mL
MIC (Staphylococcus aureus [27]): 8 µg/mL (≈ 23.7 µM)
MIC (Staphylococcus aureus [28]): 16 µg/mL (≈ 47.4 µM)

CS(=O)(=O)c1ccc([C@@H](O)[C@@H](CF)NC(=O)C(Cl)Cl)cc1 [FLORFENICOL]
MIC (Escherichia coli [29]): 8 µg/mL (≈ 22.3 µM)
MIC (Escherichia coli [30]): 16 µg/mL (≈ 44.7 µM)
MIC (Escherichia coli [31]): 32 µg/mL (≈ 89.3 µM)

CC[C@H]1OC(=O)C[C@@H](O)[C@H](C)[C@@H](O[C@@H]2O[C@H](C)[C@@H](O)[C@H](N(C)C)[C@H]2O)[C@@H](CCN2CCCCC2)C[C@@H](C)C(=O)/C=C/C(C)=C/[C@@H]1CN1CCCCC1 [TILDIPIROSIN]
MIC (Staphylococcus aureus [1]): 16 µg/mL (≈ 21.8 µM)
MIC (Escherichia coli [2]): 1 µg/mL (≈ 1.36 µM)
MIC (Enterococcus faecalis [3]): 16 µg/mL (≈ 21.8 µM)
MIC [4]: 1 µg/mL (≈ 1.36 µM)
MIC (Staphylococcus aureus [5]): 32 µg/mL (≈ 43.6 µM)
MIC (Escherichia coli [6]): 4 µg/mL (≈ 5.45 µM)
MIC (Escherichia coli [7]): 16 µg/mL (≈ 21.8 µM)
MBC (Staphylococcus aureus [16]): 4 µg/mL (≈ 5.45 µM)
MIC (Staphylococcus aureus [17]): 0.5 µg/mL (≈ 0.681 µM)
Ratio (Staphylococcus aureus [32]): 8
MBC (Enterococcus faecalis [18]): 16 µg/mL (≈ 21.8 µM)
MIC (Enterococcus faecalis [19]): 8 µg/mL (≈ 10.9 µM)
Ratio (Enterococcus faecalis [20]): 2
MIC (Escherichia coli [22]): 32 µg/mL (≈ 43.6 µM)
MBC [24]: 16 µg/mL (≈ 21.8 µM)
MIC [25]: 8 µg/mL (≈ 10.9 µM)
Ratio [26]: 2
MIC (Escherichia coli [8]): > 32 µg/mL
MIC (Escherichia coli [9]): > 32 µg/mL
MIC (Escherichia coli [10]): > 32 µg/mL
MIC (Escherichia coli [11]): > 32 µg/mL
MIC (Staphylococcus aureus [12]): 0.5 µg/mL (≈ 0.681 µM)
MIC (Staphylococcus aureus [13]): 0.5 µg/mL (≈ 0.681 µM)
MIC (Staphylococcus aureus [14]): 1 µg/mL (≈ 1.36 µM)
MIC (Staphylococcus aureus [15]): 1 µg/mL (≈ 1.36 µM)
IC50 at 72 h [33]: 114 µg/mL (≈ 155 µM)
selectivity ratio [34]: 3.56

CC[C@H]1OC(=O)C[C@@H](O)[C@H](C)[C@@H](O[C@@H]2O[C@H](C)[C@@H](O)[C@H](N(C)C)[C@H]2O)[C@@H](CCNCc2cn(-c3cnc4ccccc4c3)nn2)C[C@@H](C)C(=O)/C=C/C(C)=C/[C@@H]1CNCc1ccc(C)cc1
MIC (Staphylococcus aureus [1]): 0.5 µg/mL (≈ 0.549 µM)
MIC (Escherichia coli [2]): 1 µg/mL (≈ 1.1 µM)
MIC (Enterococcus faecalis [3]): 1 µg/mL (≈ 1.1 µM)
MIC [4]: 1 µg/mL (≈ 1.1 µM)
MIC (Staphylococcus aureus [5]): 0.5 µg/mL (≈ 0.549 µM)
MIC (Escherichia coli [6]): 1 µg/mL (≈ 1.1 µM)
MIC (Escherichia coli [7]): 4 µg/mL (≈ 4.39 µM)
MBC (Staphylococcus aureus [16]): 1 µg/mL (≈ 1.1 µM)
MIC (Staphylococcus aureus [17]): 0.5 µg/mL (≈ 0.549 µM)
Ratio (Staphylococcus aureus [32]): 2
MBC (Enterococcus faecalis [18]): 8 µg/mL (≈ 8.79 µM)
MIC (Enterococcus faecalis [19]): 1 µg/mL (≈ 1.1 µM)
Ratio (Enterococcus faecalis [20]): 2
MBC (Escherichia coli [21]): 1 µg/mL (≈ 1.1 µM)
MIC (Escherichia coli [22]): 0.5 µg/mL (≈ 0.549 µM)
Ratio (Escherichia coli [23]): 2
MBC [24]: 4 µg/mL (≈ 4.39 µM)
MIC [25]: 2 µg/mL (≈ 2.2 µM)
Ratio [26]: 2
